Experiments:
ORYSAT (Rice, Tebonnet) [1] = assay: Flooded paddy, post-transplant rice tolerance; assay type: in vivo, Oryza sativa, (L.) Tebonnet; details: flooded paddy, post-transplant rice, rated 3-4 weeks after treatment, 0-9 rating scale
In short: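 Visual 0–9 injury rating against a control, covering stand, vigor, malformation, size, chlorosis and overall appearance. Treatment was post-transplant onto flooded containers (water 1.5–3 cm deep, silt loam) holding two ten-day-old cv. Tebonnet seedlings, maintained on greenhouse benches.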

SETVI (Setaria viridis) [2] = assay: Preemergence herbicidal evaluation; assay type: in vivo, (L.) Beau; details: preemergence, rated 4-5 weeks after treatment
In short: (§1)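 Applied before emergence as an aqueous acetone spray over seeded soil. Read-out: 0–9 visual rating covering plant stand, vigor, size, chlorosis, malformation and overall appearance compared with control, taken 4–5 weeks after spraying.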

[3] = tested on: ECHCG (Echinochloa crus-galli); assay: Preemergence herbicidal evaluation; assay type: in vivo, (L.) Beau; details: preemergence, rated 4-5 weeks after treatment
In short: as §1

[4] = tested on: IPOHE (Ipomoea hederacea); assay: Postemergence herbicidal evaluation; assay type: in vivo, (L.) Jacq.; details: for IPOHE herbicidal rating: postemergence
In short: (§2)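 Seedlings grown about two weeks in flats, sprayed, then kept under standard greenhouse care. Rated visually 4–5 weeks after treatment on a 0–9 scale (stand, vigour, malformation, size, chlorosis, overall appearance) relative to untreated control; repeat tests averaged.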

[5] = tested on: CHEAL (Chenopodium album); assay: Preemergence herbicidal evaluation; assay type: in vivo, L.; details: preemergence, rated 4-5 weeks after treatment
In short: as §1

[6] = tested on: AMBEL (Ambrosia artemisifolia); assay: Preemergence herbicidal evaluation; assay type: in vivo, L.; details: preemergence, rated 4-5 weeks after treatment
In short: as §1

[7] = tested on: CASOB (Cassia obtusifolia); assay: Preemergence herbicidal evaluation; assay type: in vivo, L.; details: preemergence, rated 4-5 weeks after treatment
In short: as §1

GALAP (Galium aparine) = assay: Postemergence herbicidal evaluation; assay type: in vivo; details: for GALAP herbicidal rating: postemergence
In short: as §2

ORYSAT (Rice, Tebonnet) [8] = assay: Postemergence herbicidal evaluation; assay type: in vivo, Oryza sativa, (L.) Tebonnet; details: for ORYSAT herbicidal rating: postemergence
In short: as §2

ORYSAT (Rice, Tebonnet) [9] = assay: Preemergence herbicidal evaluation; assay type: in vivo, Oryza sativa, (L.) Tebonnet; details: preemergence, rated 4-5 weeks after treatment
[10] = tested on: IPOHE (Ipomoea hederacea); assay: Preemergence herbicidal evaluation; assay type: in vivo, (L.) Jacq.; details: preemergence, rated 4-5 weeks after treatment
[11] = tested on: ABUTH (Abutilon theophrasti); assay: Postemergence herbicidal evaluation; assay type: in vivo, Medic.; details: for ABUTH herbicidal rating: postemergence
In short: as §2

[12] = tested on: ECHCG (Echinochloa crus-galli); assay: Postemergence herbicidal evaluation; assay type: in vivo, (L.) Beau; details: for ECHCG herbicidal rating: postemergence
In short: as §2

[13] = tested on: GLXMAW (Soybean, Williams); assay: Postemergence herbicidal evaluation; assay type: in vivo, Glycine max, (L.) Merr. cv Williams; details: for GLXMAW herbicidal rating: postemergence
In short: as §2

[14] = tested on: MOOVA (Monochoria vaginalis); assay: Flooded paddy, preemergence weed control; assay type: in vivo, Presl.; details: rated 3-4 weeks after treatment, 0-9 rating scale
In short: (§3)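 Seeds or propagating organs were sown in the top 0.5 cm of silt loam soil, flooded, and the water kept 1.5 to 3 cm above the soil surface throughout. Plants were grown in the greenhouse and rated visually on a 0-9 scale against a control.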

[15] = tested on: SAGPY (Sagittaria pygmaea); assay: Flooded paddy, preemergence weed control; assay type: in vivo, L.; details: rated 3-4 weeks after treatment, 0-9 rating scale
In short: as §3

ZEAMX (Corn, Field) = assay: Postemergence herbicidal evaluation; assay type: in vivo, Zea mays, L.; details: for ZEAMX herbicidal rating: postemergence
In short: as §2

[16] = tested on: ECHORC (Echinochloa oryzoides); assay: Flooded paddy, preemergence weed control; assay type: in vivo, Echinochloa oryzoides (Ard.) Fritsch.; details: rated 3-4 weeks after treatment, 0-9 rating scale
In short: as §3

CYPIR (Cyperus iria) = assay: Flooded paddy, preemergence weed control; assay type: in vivo; details: rated 3-4 weeks after treatment, 0-9 rating scale
In short: as §3

SETVI (Setaria viridis) [17] = assay: Postemergence herbicidal evaluation; assay type: in vivo, (L.) Beau; details: for SETVI herbicidal rating: postemergence
In short: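 Seedlings grown about two weeks were sprayed with compound in 50/50 acetone/water containing 0.5% TWEEN 20, at about 0.0040 to 1.000 kg/ha via nozzle at 40 psi. Plants were kept under greenhouse conditions and visually rated on a 0-9 scale versus control four to five weeks after treatment; replicate tests averaged.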

CCc1cc(-c2nsc3ccc(-n4c(=O)cc(C(F)(F)F)n(C)c4=O)cc23)c(CC)s1 [Compound 8, 3-[3-(2,5-diethyl-3-thienyl)-1,2-benzisothiazol-5-yl]-1-methyl-6-(trifluoromethyl)uracil]
herbicidal rating, ORYSAT (rice tolerance) (ORYSAT (Rice, Tebonnet) [1]; rate 0.0080 kg/ha): 1.0
herbicidal rating, ORYSAT (rice tolerance) (ORYSAT (Rice, Tebonnet) [1]; rate 0.0320 kg/ha): 1.5
herbicidal rating, ORYSAT (rice tolerance) (ORYSAT (Rice, Tebonnet) [1]; rate 0.1250 kg/ha): 2.7
SETVI preemergence herbicidal rating (SETVI (Setaria viridis) [2]; Rate 0.0620 kg/ha): 9.0
SETVI preemergence herbicidal rating (SETVI (Setaria viridis) [2]; Rate 0.1250 kg/ha): 9.0
SETVI preemergence herbicidal rating (SETVI (Setaria viridis) [2]; Rate 0.2500 kg/ha): 9.0
ECHCG preemergence herbicidal rating ([3]; Rate 0.0620 kg/ha): 0.0
ECHCG preemergence herbicidal rating ([3]; Rate 0.1250 kg/ha): 0.0
ECHCG preemergence herbicidal rating ([3]; Rate 0.2500 kg/ha): 9.0
Postemergence herbicidal rating, IPOHE ([4]; rate 0.0320 kg/ha): 9.0
Postemergence herbicidal rating, IPOHE ([4]; rate 0.0620 kg/ha): 7.0
CHEAL preemergence herbicidal rating ([5]; Rate 0.0620 kg/ha): 9.0
CHEAL preemergence herbicidal rating ([5]; Rate 0.1250 kg/ha): 9.0
CHEAL preemergence herbicidal rating ([5]; Rate 0.2500 kg/ha): 9.0
AMBEL preemergence herbicidal rating ([6]; Rate 0.0620 kg/ha): 0.0
AMBEL preemergence herbicidal rating ([6]; Rate 0.1250 kg/ha): 2.0
AMBEL preemergence herbicidal rating ([6]; Rate 0.2500 kg/ha): 9.0
CASOB preemergence herbicidal rating ([7]; Rate 0.0620 kg/ha): 0.0
CASOB preemergence herbicidal rating ([7]; Rate 0.1250 kg/ha): 0.0
CASOB preemergence herbicidal rating ([7]; Rate 0.2500 kg/ha): 0.0
Postemergence herbicidal rating, GALAP (GALAP (Galium aparine); rate 0.0320 kg/ha): 3.0
Postemergence herbicidal rating, GALAP (GALAP (Galium aparine); rate 0.0620 kg/ha): 6.0
Postemergence herbicidal rating, ORYSAT (ORYSAT (Rice, Tebonnet) [8]; rate 0.0320 kg/ha): 3.0
Postemergence herbicidal rating, ORYSAT (ORYSAT (Rice, Tebonnet) [8]; rate 0.0620 kg/ha): 3.0
ORYSAT preemergence herbicidal rating (ORYSAT (Rice, Tebonnet) [9]; Rate 0.0620 kg/ha): 0.0
ORYSAT preemergence herbicidal rating (ORYSAT (Rice, Tebonnet) [9]; Rate 0.1250 kg/ha): 0.0
ORYSAT preemergence herbicidal rating (ORYSAT (Rice, Tebonnet) [9]; Rate 0.2500 kg/ha): 0.0
IPOHE preemergence herbicidal rating ([10]; Rate 0.0620 kg/ha): 0.0
IPOHE preemergence herbicidal rating ([10]; Rate 0.1250 kg/ha): 0.0
IPOHE preemergence herbicidal rating ([10]; Rate 0.2500 kg/ha): 1.0
Postemergence herbicidal rating, ABUTH ([11]; rate 0.0320 kg/ha): 9.0
Postemergence herbicidal rating, ABUTH ([11]; rate 0.0620 kg/ha): 9.0
Postemergence herbicidal rating, ECHCG ([12]; rate 0.0320 kg/ha): 2.0
Postemergence herbicidal rating, ECHCG ([12]; rate 0.0620 kg/ha): 2.0
Postemergence herbicidal rating, GLXMAW ([13]; rate 0.0320 kg/ha): 5.0
Postemergence herbicidal rating, GLXMAW ([13]; rate 0.0620 kg/ha): 5.5
herbicidal rating, MOOVA ([14]; rate 0.0080 kg/ha): 9.0
herbicidal rating, MOOVA ([14]; rate 0.0320 kg/ha): 9.0
herbicidal rating, MOOVA ([14]; rate 0.1250 kg/ha): 9.0
herbicidal rating, SAGPY ([15]; rate 0.0080 kg/ha): 0.0
herbicidal rating, SAGPY ([15]; rate 0.0320 kg/ha): 0.0
herbicidal rating, SAGPY ([15]; rate 0.1250 kg/ha): 0.0
Postemergence herbicidal rating, ZEAMX (ZEAMX (Corn, Field); rate 0.0320 kg/ha): 5.0
Postemergence herbicidal rating, ZEAMX (ZEAMX (Corn, Field); rate 0.0620 kg/ha): 5.0
herbicidal rating, ECHORC ([16]; rate 0.0080 kg/ha): 2.0
herbicidal rating, ECHORC ([16]; rate 0.0320 kg/ha): 9.0
herbicidal rating, ECHORC ([16]; rate 0.1250 kg/ha): 9.0
herbicidal rating, CYPIR (CYPIR (Cyperus iria); rate 0.0080 kg/ha): 8.5
herbicidal rating, CYPIR (CYPIR (Cyperus iria); rate 0.0320 kg/ha): 9.0
herbicidal rating, CYPIR (CYPIR (Cyperus iria); rate 0.1250 kg/ha): 9.0
Postemergence herbicidal rating, SETVI (SETVI (Setaria viridis) [17]; rate 0.0320 kg/ha): 3.0
Postemergence herbicidal rating, SETVI (SETVI (Setaria viridis) [17]; rate 0.0620 kg/ha): 4.0

Cn1c(C(F)(F)F)cc(=O)n(-c2ccc3snc(C4OCC(C[S+](C)[O-])O4)c3c2)c1=O (stereo not drawn) [Compound 88, 1-methyl-3-[3-[4-[(methylsulfinyl)methyl]-1,3-dioxolan-2-yl]-1,2-benzisothiazol-5-yl]-6-(trifluoromethyl)uracil]
ORYSAT herbicidal rating (transplanted rice tolerance) (ORYSAT (Rice, Tebonnet) [1]; rate 0.0320 kg/ha): 0.0
ORYSAT herbicidal rating (transplanted rice tolerance) (ORYSAT (Rice, Tebonnet) [1]; rate 0.1250 kg/ha): 5.0
Preemergence herbicidal rating SETVI (SETVI (Setaria viridis) [2]; rate 0.0620 kg/ha): 5.5
Preemergence herbicidal rating SETVI (SETVI (Setaria viridis) [2]; rate 0.1250 kg/ha): 9.0
Preemergence herbicidal rating SETVI (SETVI (Setaria viridis) [2]; rate 0.2500 kg/ha): 9.0
Preemergence herbicidal rating ECHCG ([3]; rate 0.0620 kg/ha): 5.5
Preemergence herbicidal rating ECHCG ([3]; rate 0.1250 kg/ha): 6.5
Preemergence herbicidal rating ECHCG ([3]; rate 0.2500 kg/ha): 9.0
IPOHE herbicidal rating ([4]; rate 0.0320 kg/ha): 9.0
IPOHE herbicidal rating ([4]; rate 0.0620 kg/ha): 9.0
Preemergence herbicidal rating CHEAL ([5]; rate 0.0620 kg/ha): 9.0
Preemergence herbicidal rating CHEAL ([5]; rate 0.1250 kg/ha): 9.0
Preemergence herbicidal rating CHEAL ([5]; rate 0.2500 kg/ha): 9.0
Preemergence herbicidal rating AMBEL ([6]; rate 0.0620 kg/ha): 9.0
Preemergence herbicidal rating AMBEL ([6]; rate 0.1250 kg/ha): 9.0
Preemergence herbicidal rating AMBEL ([6]; rate 0.2500 kg/ha): 9.0
Preemergence herbicidal rating CASOB ([7]; rate 0.0620 kg/ha): 5.0
Preemergence herbicidal rating CASOB ([7]; rate 0.1250 kg/ha): 9.0
Preemergence herbicidal rating CASOB ([7]; rate 0.2500 kg/ha): 9.0
GALAP herbicidal rating (GALAP (Galium aparine); rate 0.0320 kg/ha): 9.0
GALAP herbicidal rating (GALAP (Galium aparine); rate 0.0620 kg/ha): 9.0
ORYSAT herbicidal rating (ORYSAT (Rice, Tebonnet) [8]; rate 0.0320 kg/ha): 4.0
ORYSAT herbicidal rating (ORYSAT (Rice, Tebonnet) [8]; rate 0.0620 kg/ha): 4.0
Preemergence herbicidal rating ORYSAT (ORYSAT (Rice, Tebonnet) [9]; rate 0.0620 kg/ha): 4.0
Preemergence herbicidal rating ORYSAT (ORYSAT (Rice, Tebonnet) [9]; rate 0.1250 kg/ha): 5.0
Preemergence herbicidal rating ORYSAT (ORYSAT (Rice, Tebonnet) [9]; rate 0.2500 kg/ha): 8.0
Preemergence herbicidal rating IPOHE ([10]; rate 0.0620 kg/ha): 6.0
Preemergence herbicidal rating IPOHE ([10]; rate 0.1250 kg/ha): 7.5
Preemergence herbicidal rating IPOHE ([10]; rate 0.2500 kg/ha): 9.0
ABUTH herbicidal rating ([11]; rate 0.0320 kg/ha): 9.0
ABUTH herbicidal rating ([11]; rate 0.0620 kg/ha): 9.0
ECHCG herbicidal rating ([12]; rate 0.0320 kg/ha): 5.0
ECHCG herbicidal rating ([12]; rate 0.0620 kg/ha): 5.0
GLXMAW herbicidal rating ([13]; rate 0.0320 kg/ha): 9.0
GLXMAW herbicidal rating ([13]; rate 0.0620 kg/ha): 9.0
MOOVA herbicidal rating ([14]; rate 0.0320 kg/ha): 0.0
MOOVA herbicidal rating ([14]; rate 0.1250 kg/ha): 9.0
SAGPY herbicidal rating ([15]; rate 0.0320 kg/ha): 0.0
SAGPY herbicidal rating ([15]; rate 0.1250 kg/ha): 0.0
ZEAMX herbicidal rating (ZEAMX (Corn, Field); rate 0.0320 kg/ha): 4.0
ZEAMX herbicidal rating (ZEAMX (Corn, Field); rate 0.0620 kg/ha): 5.0
ECHORC herbicidal rating ([16]; rate 0.0320 kg/ha): 0.0
ECHORC herbicidal rating ([16]; rate 0.1250 kg/ha): 0.0
CYPIR herbicidal rating (CYPIR (Cyperus iria); rate 0.0320 kg/ha): 0.0
CYPIR herbicidal rating (CYPIR (Cyperus iria); rate 0.1250 kg/ha): 9.0
SETVI herbicidal rating (SETVI (Setaria viridis) [17]; rate 0.0320 kg/ha): 9.0
SETVI herbicidal rating (SETVI (Setaria viridis) [17]; rate 0.0620 kg/ha): 9.0
